Measured values as given in publication PMC4715937 (Cancer research, 2016).

How the values were obtained:
Format in all cases: cell-based, human
Heme oxygenase-1 (HMOX1) = experiment: HMOX1 quantitative PCR and ELISA in DLBCL cells; settings: Ly19 cells, inhibitor at 4μM, 24 hours
Ly19 cells = experiment: MTS assay of Ly19 cells with pro-oxidant and NF-κB inhibitor; settings: 3 days; PS-1145 4 μM, pyocyanin 350 μM, single agents
TMD8 cells = experiment: MTS cell proliferation assay, TMD8 cells; settings: antibody alone, 48 hours

## O=C(Nc1cc(Cl)cc2c1[nH]c1cnccc12)c1cccnc1 [PS-1145]
Heme oxygenase-1 (HMOX1)
  HMOX1 induction in the presence of pyocyanin: reduced HMOX1 induction
Ly19 cells
  Ly19 growth: no effect on Ly19 growth

## Cn1c2cccc(=O)c-2nc2ccccc21 [pyocyanin]
Ly19 cells
  Ly19 growth: strongly inhibited lymphoma cell growth

## ADALIMUMAB
TMD8 cells
  cell growth of TMD8: inhibited cell growth
